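How tested: cells in 96-well plates exposed to compound for 48 hours at five concentrations. The concentration for 50% growth inhibition is given as GI50.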 Calls of active or inactive are those of the source. No stated cut-off is given here; in the data, active = GI50 up to about 1.1 µM and inactive = higher.
Experiments:
Assay in all cases: growth of human tumour cells (NCI), 48 h
CAKI-1 = test system: CAKI-1
SNB-19 = test system: SNB-19
PC-3 = test system: PC-3
IGROV-1 = test system: IGROV-1
HCC 2998 = test system: HCC 2998
HOP-92 = test system: HOP-92
U-251 = test system: U-251
MDA-MB-231 = test system: MDA-MB-231
OVCAR-3 = test system: OVCAR-3
SW-620 = test system: SW-620
OVCAR-4 = test system: OVCAR-4
HL-60 = test system: HL-60
M14 = test system: M14
HOP-62 = test system: HOP-62
OVCAR-8 = test system: OVCAR-8
NCI-H23 = test system: NCI-H23
HCT-116 = test system: HCT-116
SK-MEL-5 = test system: SK-MEL-5
SNB-75 = test system: SNB-75
DU-145 = test system: DU-145
HT-29 = test system: HT-29
NCI-H226 = test system: NCI-H226
SR = test system: SR
COLO 205 = test system: COLO 205
CCRF-CEM = test system: CCRF-CEM
Hs-578T = test system: Hs-578T
T47D = test system: T47D
MDA-N = test system: MDA-N
TK-10 = test system: TK-10
SK-MEL-28 = test system: SK-MEL-28
MDA-MB-435 = test system: MDA-MB-435
SF-295 = test system: SF-295
UO-31 = test system: UO-31
A498 = test system: A498
NCI/ADR-RES = test system: NCI/ADR-RES
ACHN = test system: ACHN
A549 = test system: A549
HCT-15 = test system: HCT-15
SK-MEL-2 = test system: SK-MEL-2
MOLT-4 = test system: MOLT-4
OVCAR-5 = test system: OVCAR-5
SN12C = test system: SN12C
SK-OV-3 = test system: SK-OV-3
NCI-H522 = test system: NCI-H522
MCF7 = test system: MCF7
K562 = test system: K562
NCI-H460 = test system: NCI-H460
RPMI-8226 = test system: RPMI-8226
LOX IMVI = test system: LOX IMVI
UACC-257 = test system: UACC-257
EKVX = test system: EKVX
UACC-62 = test system: UACC-62
Malme-3M = test system: Malme-3M
SF-268 = test system: SF-268
KM12 = test system: KM12
RXF 393 = test system: RXF 393

Measured: GI50

CCOP(=O)(CN=C(c1ccccc1)c1ccccc1)OCC
inactive: CAKI-1 > 100 µM | SNB-19 > 100 µM | PC-3 > 100 µM | IGROV-1 > 100 µM | HCC 2998 > 100 µM | HOP-92 > 100 µM | U-251 > 100 µM | MDA-MB-231 > 100 µM | OVCAR-3 63.2 µM | SW-620 > 100 µM | OVCAR-4 > 100 µM | HL-60 87.1 µM | M14 > 100 µM | HOP-62 > 100 µM | OVCAR-8 > 100 µM | NCI-H23 > 100 µM | HCT-116 > 100 µM | SK-MEL-5 > 100 µM | SNB-75 > 100 µM | DU-145 > 100 µM | HT-29 > 100 µM | NCI-H226 > 100 µM | SR > 100 µM | COLO 205 > 100 µM | CCRF-CEM > 100 µM | Hs-578T > 100 µM | T47D 86.7 µM | MDA-N > 100 µM | TK-10 > 100 µM | SK-MEL-28 > 100 µM | MDA-MB-435 > 100 µM | SF-295 > 100 µM | UO-31 > 100 µM | A498 73.8 µM | NCI/ADR-RES > 100 µM | ACHN > 100 µM | A549 > 100 µM | SK-MEL-2 > 100 µM | MOLT-4 > 100 µM | OVCAR-5 > 100 µM | SN12C > 100 µM | SK-OV-3 > 100 µM | NCI-H522 > 100 µM | MCF7 > 100 µM | K562 > 100 µM | NCI-H460 > 100 µM | RPMI-8226 > 100 µM | LOX IMVI > 100 µM | UACC-257 > 100 µM
> 100 µM: HCT-15

CC(C(=O)NCCNC(=O)CCCC(=O)N(C)O)C(=O)NCCNC(=O)CCCC(=O)N(C)O
> 100 µM: HCT-15
inactive: CAKI-1 > 100 µM | SNB-19 > 100 µM | PC-3 > 100 µM | IGROV-1 > 100 µM | HCC 2998 > 100 µM | HOP-92 > 100 µM | U-251 > 100 µM | MDA-MB-231 > 100 µM | OVCAR-3 > 100 µM | SW-620 > 100 µM | OVCAR-4 > 100 µM | EKVX > 100 µM | HL-60 > 100 µM | M14 > 100 µM | HOP-62 > 100 µM | OVCAR-8 > 100 µM | UACC-62 > 100 µM | NCI-H23 > 100 µM | SK-MEL-5 > 100 µM | Malme-3M > 100 µM | SNB-75 > 100 µM | SF-268 > 100 µM | DU-145 > 100 µM | HT-29 > 100 µM | NCI-H226 > 100 µM | KM12 > 100 µM | SR > 100 µM | COLO 205 > 100 µM | CCRF-CEM > 100 µM | Hs-578T > 100 µM | T47D > 100 µM | MDA-N > 100 µM | TK-10 > 100 µM | SK-MEL-28 20.1 µM | MDA-MB-435 > 100 µM | SF-295 > 100 µM | UO-31 > 100 µM | A498 > 100 µM | NCI/ADR-RES > 100 µM | ACHN > 100 µM | A549 > 100 µM | SK-MEL-2 > 100 µM | MOLT-4 > 100 µM | OVCAR-5 > 100 µM | SK-OV-3 > 100 µM | NCI-H522 > 100 µM | MCF7 > 100 µM | K562 > 100 µM | NCI-H460 > 100 µM | RXF 393 > 100 µM | RPMI-8226 > 100 µM | LOX IMVI > 100 µM | UACC-257 > 100 µM

Reference: ChEMBL document CHEMBL1201862, “PubChem BioAssay data set” (2004)
